pEC50: −log10 of the molar value. Activity calls are given as the source filed them. The rule behind the calls is not given here.
What was measured:
Type in all cases: cell-based
[1] = target: T1, Peroxisome proliferator-activated receptor gamma (Homo sapiens, UniProt P37231); assay: (§1) Agonist activity at human PPARgamma ligand binding domain expressed in human HepG2 cells co-transfected with Gal4 by luciferase reporter gene assay
T1 sequence (P37231 whole entry): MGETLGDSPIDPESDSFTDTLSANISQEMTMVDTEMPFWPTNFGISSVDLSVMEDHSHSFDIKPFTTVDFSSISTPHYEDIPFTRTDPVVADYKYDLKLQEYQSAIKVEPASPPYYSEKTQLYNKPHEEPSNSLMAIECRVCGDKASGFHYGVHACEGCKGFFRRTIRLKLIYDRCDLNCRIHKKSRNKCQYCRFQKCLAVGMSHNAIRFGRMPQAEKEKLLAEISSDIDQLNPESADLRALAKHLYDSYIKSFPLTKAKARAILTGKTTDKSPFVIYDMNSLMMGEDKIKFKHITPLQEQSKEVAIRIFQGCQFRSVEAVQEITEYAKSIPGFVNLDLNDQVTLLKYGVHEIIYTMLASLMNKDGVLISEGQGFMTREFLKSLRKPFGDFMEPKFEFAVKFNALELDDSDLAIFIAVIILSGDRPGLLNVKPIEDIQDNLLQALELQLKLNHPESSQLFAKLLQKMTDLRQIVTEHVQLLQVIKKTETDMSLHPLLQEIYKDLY

[2] = target: T2, Peroxisome proliferator-activated receptor alpha (Homo sapiens, UniProt Q07869); assay: (§2) Agonist activity at human PPARalpha ligand binding domain expressed in human HepG2 cells co-transfected with Gal4 by luciferase reporter gene assay
T2 sequence (Q07869 whole entry): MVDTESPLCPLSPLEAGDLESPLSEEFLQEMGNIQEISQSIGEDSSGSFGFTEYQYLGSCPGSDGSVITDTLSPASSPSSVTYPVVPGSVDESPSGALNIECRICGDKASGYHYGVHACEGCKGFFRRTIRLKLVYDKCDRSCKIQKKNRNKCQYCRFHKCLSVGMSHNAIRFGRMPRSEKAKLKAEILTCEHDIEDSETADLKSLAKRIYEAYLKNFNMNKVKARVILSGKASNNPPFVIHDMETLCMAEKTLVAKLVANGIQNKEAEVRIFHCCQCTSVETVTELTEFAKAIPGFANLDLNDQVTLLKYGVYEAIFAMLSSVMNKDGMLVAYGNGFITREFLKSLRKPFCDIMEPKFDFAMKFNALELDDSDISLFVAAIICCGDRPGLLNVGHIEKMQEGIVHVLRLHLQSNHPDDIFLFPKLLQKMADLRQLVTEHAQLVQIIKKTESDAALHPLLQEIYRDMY

[3] = target: T3, Peroxisome proliferator-activated receptor alpha (Homo sapiens) (UniProt Q07869); assay: Agonist activity at human PPARalpha ligand binding domain expressed in human HepG2 cells co-transfected with Gal4 by luciferase reporter gene assay relative to Wy-14,643
T3 sequence (whole entry): T2 sequence (Q07869 whole entry)

[4] = target: T4, Peroxisome proliferator-activated receptor gamma (Homo sapiens) (UniProt P37231); assay: as §1
T4 sequence (whole entry): T1 sequence (P37231 whole entry)

[5] = target: T3, Peroxisome proliferator-activated receptor alpha (Homo sapiens); assay: as §2

SMILES	pEC50 [1]	pEC50 [2]	Efficacy [3] [%]	Activity [4]	Activity [5]	Activity [3]
CCCc1ccc(CC(Oc2ccc(Cl)cc2)C(=O)O)cc1 (stereo not drawn)	5.86	6.46	39	–	–	–
CCCCCCc1ccc(CC(Oc2ccc(Cl)cc2)C(=O)O)cc1 (stereo not drawn)	–	6.35	56	–	–	–
O=C(O)[C@H](Cc1ccc(C(F)(F)F)cc1)Oc1ccc(Cl)cc1	5.44	6.38	69	–	–	–
O=C(O)[C@H](Cc1ccc(Oc2ccccc2)cc1)Oc1ccc(Cl)cc1	6.06	7.57	68	–	–	–
O=C(O)[C@H](Cc1ccc(-c2ccccc2)cc1)Oc1ccc(Cl)cc1	5.95	7.31	70	–	–	–
O=C(O)[C@H](Cc1ccc(-c2cccs2)cc1)Oc1ccc(Cl)cc1	6.23	7.19	71	–	–	–
O=C(O)[C@@H](Cc1ccc(Oc2ccccc2)cc1)Oc1ccc(Cl)cc1	4.95	6.15	15	–	–	–
CCCc1cc(Cl)ccc1OC(Cc1ccccc1)C(=O)O (stereo not drawn)	–	–	18	–	–	–
CN(CCOc1ccc(CC2SC(=O)NC2=O)cc1)c1ccccn1 (stereo not drawn)	–	–	100	inactive	–	–
Cc1cccc(Nc2cc(Cl)nc(SCC(=O)O)n2)c1C	–	–	–	–	inactive	inactive
Cc1ccc(CC(Oc2ccc(Cl)cc2)C(=O)O)cc1 (racemic)	5.36	5.55	53	–	–	–
O=C(O)C(Cc1cccc(Oc2ccccc2)c1)Oc1ccc(Cl)cc1 (racemic)	5.51	6.62	57	–	–	–
O=C(O)C(Cc1ccccc1Oc1ccccc1)Oc1ccc(Cl)cc1 (racemic)	–	5.94	40	inactive	–	–
O=C(O)C(Cc1ccc(Oc2ccccc2)cc1)Oc1ccc(Cl)cc1 (racemic)	5.97	7.19	58	–	–	–
O=C(O)C(Cc1ccccc1)Oc1ccc(Cl)cc1Br (racemic)	–	5.78	41	–	–	–
O=C(O)C(Cc1ccccc1)Oc1ccc(Cl)c(Cl)c1 (racemic)	5.59	5.35	27	–	–	–
O=C(O)C(Cc1ccccc1)Oc1ccc(Cl)cc1Cl (racemic)	–	5.67	50	–	–	–
CCCCCCc1cc(Cl)ccc1OC(Cc1ccccc1)C(=O)O (racemic)	–	–	–	inactive	inactive	inactive
Cc1cc(Cl)cc(C)c1OC(Cc1ccccc1)C(=O)O (racemic)	–	–	–	inactive	inactive	inactive
Cc1cc(Cl)ccc1OC(Cc1ccccc1)C(=O)O (racemic)	–	–	34	–	–	–
Cc1cccc(C)c1CC(Oc1ccc(Cl)cc1)C(=O)O (racemic)	–	–	–	inactive	inactive	inactive
O=C(O)C(Cc1ccccc1)Oc1c(Cl)cc(Cl)cc1Cl (racemic)	–	–	–	inactive	inactive	inactive
O=C(O)C(Cc1ccccc1)Oc1ccc(Cl)cc1-c1ccccc1 (racemic)	–	–	–	inactive	inactive	inactive

Now from value to compound:

pEC50 [1]	pEC50 [2]	Efficacy [3] [%]	Activity [4]	Activity [5]	Activity [3]	SMILES
5.10	4.84	48	–	–	–	O=C(O)[C@H](Cc1ccccc1)Oc1ccc(Cl)cc1
5.43	5.84	43	–	–	–	CCCc1ccccc1CC(Oc1ccc(Cl)cc1)C(=O)O (stereo not drawn)
–	–	–	inactive	inactive	inactive	CCCCCCc1ccccc1CC(Oc1ccc(Cl)cc1)C(=O)O (stereo not drawn)
–	–	–	inactive	inactive	inactive	O=C(O)C(Cc1ccccc1-c1ccccc1)Oc1ccc(Cl)cc1 (stereo not drawn)
5.07	5.03	50	–	–	–	Cc1ccccc1CC(Oc1ccc(Cl)cc1)C(=O)O (racemic)
5.50	5.65	49	–	–	–	O=C(O)C(Cc1ccc(Cl)cc1)Oc1ccc(Cl)cc1 (racemic)
5.39	5.60	43	–	–	–	O=C(O)C(Cc1ccccc1C(F)(F)F)Oc1ccc(Cl)cc1 (racemic)
5.65	5.66	44	–	–	–	O=C(O)C(Cc1ccccc1Cl)Oc1ccc(Cl)cc1 (racemic)
5.61	5.65	57	–	–	–	O=C(O)C(Cc1ccccc1Br)Oc1ccc(Cl)cc1 (racemic)
5.68	5.96	46	–	–	–	O=C(O)C(Cc1ccc(Br)cc1)Oc1ccc(Cl)cc1 (racemic)
–	–	–	inactive	inactive	inactive	O=C(O)C(Cc1c(Cl)cccc1Cl)Oc1ccc(Cl)cc1 (racemic)
